Reference: publication PMC12430429, “Synthesis, Structure, DNA/BSA Binding, DNA Cleaving, Cytotoxic and SOD Mimetic Activities of Copper(II) Complexes Derived from Methoxybenzylamine Schiff Base Ligands” (Molecules, 2025)

Columns and labels:
[1] = system: supercoiled DNA plasmid pBR322; assay: DNA cleavage assay (agarose gel electrophoresis); assay type: biochemical; settings: for Form I (%) / Form II (%) / Form III (%): 3 h, 37 °C, 250 ng pDNA
Excerpt: The gel electrophoresis separation of the supercoiled DNA plasmid pBR322 induced by prepared copper(II) complexes is shown in Figure 7. […] The cleavage activity of 4a and 4c increased remarkably with increasing concentration.
The DNA cleaving activities were also quantified using the “geneQUANT software” (Cleaver Scientific, UK). Data are expressed as percentage (%) expression of the amount of pDNA that has passed through the effect of the nuclease activity of the copper complex from the uncleaved supercoiled Form I to the cleaved Form II (open-circular pDNA) or Form III (linear pDNA) (Table 5). […] Therefore, each percentage can also be converted to the mass of pDNA turned to Form II or III. For example, for complex 4a at a 1 mM concentration, 41.2% of pDNA was cleaved to Form II, which is 103 ng of pDNA, or at a 3 mM concentration, 46.2% corresponds to 115.5 ng of pDNA. Quantification allows us to compare the specific complexes more precisely. […] Some aggregation might be present at higher concentrations, keeping the amount of reactive monomer at a lower level.
The ability of copper(II) complexes to cleave DNA was examined by following the conversion of supercoiled plasmid DNA (Form I) to the open-circular DNA (Form II) and/or linear DNA (forms using agarose gel electrophoresis to separate the cleavage products.
In general, 250 ng of the DNA plasmid pBBR 322 (in 25 mM TRIS-HCl buffer solution, pH 7.5) was treated with different concentrations (1 mM, 3 mM and 5 mM) of the copper(II) complex (dissolved in DMSO) for 3 h at 37 °C. After that, each reaction was quenched by adding 4 μL of a Smart Glow Loading Dye® (loading buffer solution with 0.01% Safe Green dye, 50% glycerol and 250 mM EDTA, pH 8.0) and the sample subjected to electrophoresis (MyGel Mini electrophoresis system®, Accuris, Edison, NJ, USA) on a 0.9% agarose gel containing TAE buffer (40 mM TRIS, 20 mM acetic acid and 1 mM EDTA) at a voltage of 55 V/40 mA for about 1.5 h. As a “running buffer”, TAE buffer (40 mM TRIS, 20 mM acetic acid and 1 mM EDTA) was used. The resulting gels were visualized with UV light and scanned by a mobile device, an Apple iPhone 11 cam 26 mm f1.8. DNA cleaving activities were quantified using the “geneQUANT software” (version 4.3.9, Cleaver Scientific, Rugby, UK).
In the following tables, the percentage (%) expression of the amount of pDNA that has passed through the effect of the nuclease activity of the copper complex from the uncleaved supercoiled form I to the cleaved form II (open circular pDNA) or form III (linear pDNA). Quantitative evaluation was performed using the […] (Cleaver Scientific, UK). V (tested sample) = 20 ul; c (pDNA) = 250 […]
Figure S2-1: The original gel scan: upper left lines 1 – 4 complex 4a (0 mM, 1 mM, 3mM, 5mM), upper lines 6 – 9 complex 4b (0 mM, 1 mM, 3mM, 5mM), lower lines 1 – 4 complex 4c (0 mM, 1 mM, 3mM, […]
(1 picture or pasted object on this page, not shown here)

[2] = biological target: bovine serum albumin (BSA) (Bos taurus, UniProt P02769); assay: Bovine serum albumin binding (tryptophan fluorescence quenching); settings: for dynamic quenching constant Ksv / quenching constant kq: BSA 3 μM, citrate buffer pH 7.0; for association binding constant KBSA / n (number of binding sites for albumin): Scatchard equation
Sequence of bovine serum albumin (BSA) (P02769 25-607): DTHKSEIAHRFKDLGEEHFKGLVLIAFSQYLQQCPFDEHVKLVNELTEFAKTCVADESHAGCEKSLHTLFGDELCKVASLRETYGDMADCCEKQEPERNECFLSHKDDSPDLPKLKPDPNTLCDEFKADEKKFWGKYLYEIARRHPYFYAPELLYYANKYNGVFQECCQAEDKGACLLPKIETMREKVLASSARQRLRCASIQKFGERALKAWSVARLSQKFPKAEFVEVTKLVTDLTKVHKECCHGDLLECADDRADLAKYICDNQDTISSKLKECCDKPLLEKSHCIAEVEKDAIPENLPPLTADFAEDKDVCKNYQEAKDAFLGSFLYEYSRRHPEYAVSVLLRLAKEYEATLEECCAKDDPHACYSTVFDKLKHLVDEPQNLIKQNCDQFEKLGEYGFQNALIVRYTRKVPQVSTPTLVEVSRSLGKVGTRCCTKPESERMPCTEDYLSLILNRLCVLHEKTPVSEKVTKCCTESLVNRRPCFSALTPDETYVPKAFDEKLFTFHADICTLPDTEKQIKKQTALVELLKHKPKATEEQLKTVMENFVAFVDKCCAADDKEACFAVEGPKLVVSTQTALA
Procedure: The fluorescence emission spectra of BSA show intense fluorescence emission at 336 nm upon excitation at 280 nm. This is due to the presence of two tryptophan residues (Trp134 and Trp212). Fluorescence quenching data were analyzed to obtain various binding parameters for the interaction of complexes 4a–c with BSA.
The interaction of complexes with serum albumin was characterized by the Stern–Volmer constant Ksv and the quenching constant kq, which was calculated using the Stern–Volmer equation (Figure S4-2) together with the associate binding constant KBSA and the number of binding sites per albumin n determined from the Scatchard equations (Equation (6), Figure S4-3); the values are summarized in Table 6.
The BSA binding of complexes 4a–c was studied by tryptophan fluorescence emission quenching experiments using BSA (3 μM) in citrate buffer solution (containing 15 mM trisodium citrate and 150 mM sodium chloride at pH 7.0). The emission intensity quenching of BSA tryptophan residues at 336 nm was measured by increasing the concentration of the quencher complexes 4a–c. The concentration of the added complexes ranged from 0 to 0.2 mM. The fluorescence emission spectra were recorded in the 300–420 nm range and with an excitation wavelength of 280 nm. The values of the Stern–Volmer constant KSV (in M^−1), the BSA binding constant K (in M^−1) for the compound–BSA interaction and the BSA quenching constant kq (in M^−1 s^−1) have been calculated from the Stern–Volmer (Equations (2)–(4)). and Scatchard equations (Equation (6)):(6) ΔI/Io/[Q]=nK−KΔI/Io
The BSA binding constant K (in M^−1) can be calculated from the slope of the Scatchard plots, and the number of binding sites per albumin (n) is given by the ratio of the y intercept to the slope.

A549 cells = assay: MTT cytotoxicity assay, A549; assay type: cell-based, human; settings: 72 h
Procedure: (§1) The cytotoxicity study of the prepared copper(II) complexes was performed using the MTT assay on human cell lines—A549 (adenocarcinoma human alveolar basal epithelial cell line), HepG2 (human liver cancer cell line) and HEL (human lung fibroblast cell line, normal cells).
(§2) The cytotoxicity of the prepared copper(II) complexes in human cell lines was evaluated using the 3-(4,5-dimethylthiazol-2-yl)-2,5-diphenyltetrazolium bromide (MTT) assay following the protocol by Mosmann. Briefly, A549 (human lung epithelial cells, carcinoma), HepG2 (human liver epithelial cells, carcinoma) and HEL (human lung fibroblast cells, normal) cells were seeded in plastic 96-well plates at a density of 1.5–2 × 10^4 cells per well. […] After the treatment, the samples were washed with phosphate-buffered saline (PBS), followed by 4 h of incubation with 1 mg/mL of MTT. Subsequently, the MTT solution was removed, and the formed formazane solids were dissolved in dimethyl sulfoxide for 30 min. The photometric evaluation (at 540 nm and 690 nm) was carried out using an xMark™ Microplate Absorbance Spectrophotometer (Bio-Rad, Hercules, CA, USA) [88].
(§3) A549 (ATCC® CCL-185), HepG2 (ATCC® HB-8065) and HEL299 (ATCC® CCL-137) cells were obtained from Lambda Life (Bratislava, Slovakia). A549 cells were kept in Dulbecco’s Modified Eagle’s Medium (DMEM) supplemented with 10% fetal bovine serum (FBS) and 1% antibiotics (penicillin and streptomycin). HepG2 cells were kept in Williams medium supplemented with 10% fetal bovine serum (FBS) and 1% antibiotics (penicillin and streptomycin). HEL299 cells were kept in Minimum Essential Medium (MEM) supplemented with 10% fetal bovine serum (FBS), 1% antibiotics (penicillin and streptomycin) and 1% non-essential amino acids (NEAA). The cells were cultured in a humidified atmosphere of 5% CO2 at 37 °C. Once the cells reached approximately 80% confluence, they were harvested and subcultured after trypsin treatment.

HepG2 cells = assay: MTT cytotoxicity assay, HepG2; assay type: cell-based, human; settings: 72 h
Procedure: as §1, §2, §3

COc1ccccc1CN=Cc1ccccc1[O-].COc1ccccc1CN=Cc1ccccc1[O-].[Cl-].[Cl-].[Cu+2].[Cu+2] [Complex 4a, [Cu2 (Sal-2-MeOBn)2 Cl2]]
mass of pDNA in Form I ([1]; complex 1 mM, of 250 ng pDNA): 147 ng
mass of pDNA in Form II ([1]; complex 1 mM, of 250 ng pDNA): 103 ng
mass of pDNA in Form I ([1]; complex 3 mM, of 250 ng pDNA): 134,5 ng
mass of pDNA in Form II ([1]; complex 3 mM, of 250 ng pDNA): 115,5 ng
mass of pDNA in Form III ([1]; complex 5 mM, of 250 ng pDNA): 250 ng
Form I (%) ([1]; complex 1 × 10^−3 M): 58,8%
Form II (%) ([1]; complex 1 × 10^−3 M): 41,2%
Form III (%) ([1]; complex 1 × 10^−3 M): 0%
Form I (%) ([1]; complex 3 × 10^−3 M): 53,8%
Form II (%) ([1]; complex 3 × 10^−3 M): 46,2%
Form III (%) ([1]; complex 3 × 10^−3 M): 0%
Form I (%) ([1]; complex 5 × 10^−3 M): 0%
Form II (%) ([1]; complex 5 × 10^−3 M): 0%
dynamic quenching constant Ksv [2]: 7.16 (±0.03) M^−1 × 10^4
quenching constant kq [2]: 7.16 (±0.03) M^−1s^−1 × 10^12
association binding constant KBSA [2]: 6.66 (±0.30) M^−1 × 10^4
n (number of binding sites for albumin) [2]: 1.03
IC50 (A549 cells): 66.4 ± 6.2 µM
IC50 (HepG2 cells): 17.9 ± 2.6 µM

COc1cccc(CN=Cc2ccccc2[O][Cu][O]c2ccccc2C=NCc2cccc(OC)c2)c1 [Complex 4b, [Cu (Sal-3-MeOBn)2]]
mass of pDNA in Form I ([1]; complex 1 mM, of 250 ng pDNA): 146,25 ng
mass of pDNA in Form II ([1]; complex 1 mM, of 250 ng pDNA): 103,75 ng
mass of pDNA in Form I ([1]; complex 3 mM, of 250 ng pDNA): 140,5 ng
mass of pDNA in Form II ([1]; complex 3 mM, of 250 ng pDNA): 109,5 ng
mass of pDNA in Form I ([1]; complex 5 mM, of 250 ng pDNA): 120,5 ng
mass of pDNA in Form II ([1]; complex 5 mM, of 250 ng pDNA): 129,5 ng
Form I (%) ([1]; complex 1 × 10^−3 M): 58,5%
Form II (%) ([1]; complex 1 × 10^−3 M): 41,5%
Form III (%) ([1]; complex 1 × 10^−3 M): 0%
Form I (%) ([1]; complex 3 × 10^−3 M): 56,2%
Form II (%) ([1]; complex 3 × 10^−3 M): 43,8%
Form III (%) ([1]; complex 3 × 10^−3 M): 0%
Form I (%) ([1]; complex 5 × 10^−3 M): 48,2%
Form II (%) ([1]; complex 5 × 10^−3 M): 51,8%
Form III (%) ([1]; complex 5 × 10^−3 M): 0%
dynamic quenching constant Ksv [2]: 6.39 (±0.06) M^−1 × 10^4
quenching constant kq [2]: 6.39 (±0.06) M^−1s^−1 × 10^12
association binding constant KBSA [2]: 5.37 (±0.25) M^−1 × 10^4
n (number of binding sites for albumin) [2]: 0.94
IC50 (A549 cells): 127 ± 8.1 µM
IC50 (HepG2 cells): 32.8 ± 4.9 µM

COc1ccc(CN=Cc2ccccc2[O-])cc1.COc1ccc(CN=Cc2ccccc2[O-])cc1.[Cl-].[Cl-].[Cu+2].[Cu+2] [Complex 4c, [Cu2 (Sal-4-MeOBn)2 Cl2]]
mass of pDNA in Form I ([1]; complex 1 mM, of 250 ng pDNA): 124,5 ng
mass of pDNA in Form II ([1]; complex 1 mM, of 250 ng pDNA): 125,5 ng
mass of pDNA in Form II ([1]; complex 3 mM, of 250 ng pDNA): 250 ng
mass of pDNA in Form I ([1]; complex 5 mM, of 250 ng pDNA): 11,75 ng
mass of pDNA in Form II ([1]; complex 5 mM, of 250 ng pDNA): 238,25 ng
Form I (%) ([1]; complex 1 × 10^−3 M): 49,8%
Form II (%) ([1]; complex 1 × 10^−3 M): 50,2%
Form III (%) ([1]; complex 1 × 10^−3 M): 0%
Form I (%) ([1]; complex 3 × 10^−3 M): 0%
Form III (%) ([1]; complex 3 × 10^−3 M): 0%
Form I (%) ([1]; complex 5 × 10^−3 M): 4,7%
Form II (%) ([1]; complex 5 × 10^−3 M): 95,3%
Form III (%) ([1]; complex 5 × 10^−3 M): 0%
dynamic quenching constant Ksv [2]: 4.86 (±0.15) M^−1 × 10^4
quenching constant kq [2]: 4.86 (±0.15) M^−1s^−1 × 10^12
association binding constant KBSA [2]: 4.77 (±0.20) M^−1 × 10^4
n (number of binding sites for albumin) [2]: 1.16
IC50 (A549 cells): 72 ± 6.5 µM
IC50 (HepG2 cells): 21.6 ± 4.9 µM
